# Results taken from patent publication US8594942B2, “Computational method and system for identifying network patterns in complex biological systems data” (Metabolon, Inc., priority 2004, dated 2013).
# Entries after “also recorded” stand apart in the source; their conditions may differ.
# Experiments:
# [1] = system: Male Fischer 344 rats; experiment: Acetaminophen-induced liver toxicity study: biochemical profiling (LC-MS) of rat liver; assay type: in vivo; conditions: rat liver metabolite, single dose p.o.
# Method: An acetaminophen-induced liver toxicity study was performed as follows. Male Fischer 344 rats were administered a single dose of acetaminophen (APAP) at 0, 50, 150, 1500 or 2000 mg/kg p.o. (6 rats per group). The 150 mg/kg dose is equivalent to a low overdose level in humans (˜10 g) and 1500 mg/kg is a low toxic dose in rats. The rats were sacrificed at 6, 18, 24, and 48 hr post dosing. Livers of the rats were processed for biochemical profiling, histopathology and gene expression analysis. For the 0, 50 and 1500 mg/kg dose groups, rat urine was collected at −24-0, 0-6, 6-24, and 24-48 hr relative to dosing. Similarly, rat serum was collected at 48 hr for the 0, 50 and 1500 mg/kg groups.
# Rat tissue was prepared for LC-MS analysis as follows. Rat liver tissue samples were frozen upon collection. A slice of each frozen sample was placed into a mortar, covered with liquid nitrogen, and ground with a pestle. 100 mg of ground sample was placed in a cryovial, extraction fluid and beads were added, and the sample was further ground and then centrifuged. The supernatant was transferred to a clean cryovial, centrifuged again, and then transferred to a well of a 96-well plate.
# LC-MS analysis of the rat tissue and biofluid samples was performed on an Applied Biosystems Mariner liquid chromatograph coupled with a time of flight mass spectrometer (LC-TOF). The mass resolution for the mass spectrometer employed in this experiment was 0.200 amu. One LC was employed with a splitter that allowed for the eluent to be delivered to two TOF MS instruments, one operating in positive ionization mode, the other in negative ionization mode. Compounds detected by LC-MS with an electrospray ion source were cataloged based on retention times and mass-to-charge ratio (m/z) of the ions characteristic of each peak. Mass spectrometric data were collected from 80-900 amu. Raw LC-MS data were processed using the commercially available software TARGETDB (Thru-Put Systems, Inc., Orlando, Fla.).
# A targeted list of relative responses for peaks and peaks annotated as known compounds was produced from the LC/MS data for the rat liver samples described in Example 1 and is illustrated in FIG. 1. The resulting biochemical profiling data was subjected to Principal Component Analysis (PCA), showing trends over both dose and time (see FIG. 2). The third principal component (x-axis) is plotted against the second principal component (y-axis) for each of the 6, 18, 24 and 48 hr time points for acetaminophen doses 150 mg/kg (yellow), 1500 mg/kg (black), and 2000 mg/kg (green). Each data point represents the average for six animals.
# Mathematical models of the trends observed in the PCA plot were developed. […] Trend 1 is a trend of increasing distance from control as the dose increases at any given time point. Trend 2 is a trend of change from one time point to the next that is in the same direction and of increasing magnitude as dose increases. Each of the relative response peaks in the liver biochemical profiling dataset was tested for adherence to the mathematical models to locate the subset of peaks that followed the observed trends. The peaks that adhered to the models were identified as the subset of most interest for further analysis of acetaminophen-induced liver changes. To further investigate the mode of action of acetaminophen, the known compounds in the identified subset were further analyzed using the methods and systems of the present invention.
# Using the methods and systems of the present invention, another graph was generated depicting the 15 components of interest, from Example 3 above, that were closely related enough to fit on a single graph. […] It should be noted that not only is the perturbation of the 15 compounds of interest depicted in FIG. 5, but the experimental result from any compound measured and depicted in the network of FIG. 5 is shown. […]
# [2] = system: rats; conditions: cited from earlier work
smiles,measurement,setting,value
CC(=O)Nc1ccc(O)cc1 [acetaminophen],Status of L-asparagine,[1]; FIG. 5 network component 2,Down Regulated
same,Status of ‘N’-acetyl-“b”-D-glucosamine,[1]; FIG. 5 network component 7,Down Regulated
same,Status of “a”-ketoglutarate,[1]; FIG. 5 network component 8,Down Regulated
same,Status of L-glutamine,[1]; FIG. 5 network component 10,Down Regulated
same,Status of L-arginine,[1]; FIG. 5 network component 14,didn't undergo a significant change; also recorded: No Significant Change
same,Status of L-cystathionine,[1]; FIG. 5 network component 17,Down Regulated
same,Status of “a”-hetobutyrate,[1]; FIG. 5 network component 18,Down Regulated
same,Status of L-cysteine,[1]; FIG. 5 network component 19,Down Regulated
same,Status of L-serine,[1]; FIG. 5 network component 21,Down Regulated
same,Status of “o”-phosphoethanolamine,[1]; FIG. 5 network component 23,Up Regulated
same,Status of (‘S)-lactate,[1]; FIG. 5 network component 25,Down Regulated
same,Status of Pyruvate,[1]; FIG. 5 network component 26,Down Regulated
same,Status of Phospho‘enol’pyruvate,[1]; FIG. 5 network component 29,No Significant Change
same,Status of GTP,[1]; FIG. 5 network component 30,Down Regulated
same,Status of GDP,[1]; FIG. 5 network component 31,didn't undergo a significant change; also recorded: No Significant Change
same,Status of Phenylpyruvate,[1]; FIG. 5 network component 32,Up Regulated
same,Status of L-phenylalanine,[1]; FIG. 5 network component 33,Down Regulated
same,Status of L-tyrosine,[1]; FIG. 5 network component 34,Down Regulated
same,Status of L-dopa,[1]; FIG. 5 network component 35,Down Regulated
same,Status of glutathione,[1]; FIG. 5 network component 37,Up Regulated
same,low toxic dose in rats,[2],1500 mg/kg
